Source: patent publication US20160375042A1, “USE OF CAMPTOTHECIN DERIVATIVE IN PREPARING PHARMACEUTICAL USED FOR TREATING MULTIPLE MYELOMA” (priority 2014, published 2016)
Values joined by “and” are separate entries in the source; they are usually repeats but may differ in a detail not shown here. Identical values can stand only once.

Experiments:
[1] = Plasma concentration of WQ1001 (HM 910) and its metabolite CPT in rats after intravenous injection; format: in vivo; details: for HM 910 Plasma / HM 910 Plasma (ng/mL): individual rats 1-6
Description: Intravenous administration in rats: six healthy SD rats, weighing 180˜220 g, three males and three females. Fasting for 12 h before dosing, free access to water. 20 mg/kg of HM 910 was administrated by intravenous bolus injection though caudal vein of the rats, with dose-volume volume of 1.0 mL/kg. Blooding 0.25 mL from the animal through the jugular vein, anti-clotting with heparin sodium, adding 0.2% formic acid within the anticoagulant. Blooding at following time points: 5 min, 15 min, 30 min, 45 min, 1 h, 1.5 h, 2 h, 2.5 h, 3 h, 4 h before and after administration. Blood samples were placed on ice after blooding and the plasma was centrifugal separated within 30 minutes (centrifugation conditions: 8000 r/min, 6 minutes, room temperature). The plasma collected was stored at −80° C. for analysis.

[2] = tested on: S1 and S1-M1-80 (characteristic expression of ABCG2/BCRP); assay: Anti-drug resistance test (MTT, resistance index); format: cell-based; details: S1-M1-80 (ABCG2/BCRP) versus S1 cells, 72 h, from IC50
Description: Logarithmic growth phase S1 and S1-M1-80 (characteristic expression of ABCG2/BCRP) were prepared as cell suspension of 2.5×10^4 cells/ml and 6×10^4 cells/ml, and were seeded in into 96-well plates with 0.19 ml/well. After incubating in cell incubator for 24 hours at 37° C., 5% CO2, sample solutions in various concentrations were added at 0.01 ml/well. Stroke-physiological saline solution is used as control well. Each treatment is conducted in 3 parallel wells. The drugs were added and incubated additional 72 h hours. And 5 mg/ml of MTT is added at 0.02 ml/well before four hours of the end the incubation. The culture liquid is removed at the end of incubation. Each well was added 0.1 ml of DMSO and OD values were measured at wavelength of 540 nm and reference wavelength of 655 nm. The experiment was repeated three times. Equation 1 is used to calculate cell growth inhibition rate (IR); and Equation 2 is used to calculate resistance index. Bliss method is used to calculate the 50% inhibitory concentration (IC50).

[3] = tested on: human multiple myeloma cells NCI-H929 xenografts; assay: Tumor inhibitory effect on multiple myeloma cells NCI-H929 xenografts in nude mice; format: in vivo, BALB/c nude mouse; details: for IR By RTV % / IR By TW % / RTV (X ± SD) / TW (X ± SD, g) / Bw (X ± SD, g) end / TV (X ± SD, mm^3) End / Bw (X ± SD, g) initial / TV (X ± SD, mm^3) initial: once every 4 days, intraperitoneal; for IR By RTV % / IR By TW % / RTV (X ± SD) / TW (X ± SD, g): 11th day; for Bw (X ± SD, g) end / TV (X ± SD, mm^3) End: end (11th day after inoculation)
Description: Multiple myeloma cells were routinely passaged in vitro, inoculated in 40 6-7-week-old BALB/c nude mouse, each mouse was subcutaneously injected human multiple myeloma cells NCI-H929 at its right axillary. Weighed after two days. The mice were randomly divided into five groups, eight in each group. Each group was dosed as follows: • i. physiological saline control group • ii. Topotecan positive control group, 2 mg/kg, once every 4 days, intraperitoneal injection • iii. WQ1001, high-dose group, 35 mg/kg, once every 4 days, intraperitoneal injection • iv. WQ1001, middle dose group, 25 mg/kg, once every 4 days, intraperitoneal injectionv. v. WQ1001, low dose group, 18 mg/kg, once every 4 days, intraperitoneal injection
Body weight(BW) as well as long diameter and short diameter of tumors were measured every two days. Tumor volume was calculated according to the Equation 1. On the 11th day after inoculation, the mice were weighed, long diameter and short diameter of tumors were measured, and relative tumor volume (RTV) was calculated according to Equation 2. Mice were sacrificed by cervical dislocation and the tumor mass was stripped and weighed. Inhibition rate (IR) was calculated according to the Equation 3. RTV and tumor weight (TW) for each group were analyzed through T-test.

[4] = Water-solubility test of compounds of Formula II and Formula IV; format: physicochemical; details: the C-20 phosphite salt (Formula II) itself, read-out: Water-solubility of Comp of Formula II
[5] = SD rats, 20 mg/kg HM 910 i.v. bolus, 2.5 hr, 20 mg/kg

In the case of CC[C@@]1(O[PH](=O)[O-])C(=O)OCc2c1cc1n(c2=O)Cc2cc3ccccc3nc2-1.[Na+] [WQ1001], the “HM 910 Plasma” value ([1]; SD rats, 20 mg/kg HM 910 i.v. bolus, 0.083 hr, 20 mg/kg) is reported as 56652 ng/mL and 31029 ng/mL and 37348 ng/mL and 56722 ng/mL and 45165 ng/mL and 21141 ng/mL, the “HM 910 Plasma” value ([1]; SD rats, 20 mg/kg HM 910 i.v. bolus, 0.25 hr, 20 mg/kg) is reported as 13690 ng/mL and 9484 ng/mL and 7271 ng/mL and 16294 ng/mL and 6761 ng/mL and 5639 ng/mL and the “HM 910 Plasma” value ([1]; SD rats, 20 mg/kg HM 910 i.v. bolus, 0.5 hr, 20 mg/kg) is reported as 2530 ng/mL and 1425 ng/mL and 1633 ng/mL and 4582 ng/mL and 1536 ng/mL and 1628 ng/mL. The “HM 910 Plasma” value ([1]; SD rats, 20 mg/kg HM 910 i.v. bolus, 0.75 hr, 20 mg/kg) was 919 ng/mL and 574 ng/mL and 539 ng/mL and 1578 ng/mL and 617 ng/mL and 607 ng/mL, the “HM 910 Plasma” value ([1]; SD rats, 20 mg/kg HM 910 i.v. bolus, 1 hr, 20 mg/kg) was 499 ng/mL and 259 ng/mL and 240 ng/mL (2×) and 668 ng/mL and 256 ng/mL and the “HM 910 Plasma” value ([1]; SD rats, 20 mg/kg HM 910 i.v. bolus, 1.5 hr, 20 mg/kg) was 97.2 ng/mL and 78.0 ng/mL and 45.2 ng/mL and 162 ng/mL and 59.0 ng/mL and 96.4 ng/mL. For the same compound, the “HM 910 Plasma” value ([1]; SD rats, 20 mg/kg HM 910 i.v. bolus, 2 hr, 20 mg/kg) was 18.3 ng/mL and 25.7 ng/mL and 51.5 ng/mL and 39.5 ng/mL and 20.8 ng/mL and 53.7 ng/mL, the “HM 910 Plasma” value [1, 5] was 28.2 ng/mL and 17.2 ng/mL and 18.4 ng/mL and 11.0 ng/mL and the “HM 910 Plasma (ng/mL)” value [1, 5] was “BLQ”. For the same compound, the “HM 910 Plasma (ng/mL)” value ([1]; SD rats, 20 mg/kg HM 910 i.v. bolus, 3 hr) was “BLQ”, the “HM 910 Plasma (ng/mL)” value ([1]; SD rats, 20 mg/kg HM 910 i.v. bolus, 4 hr) was “BLQ” and the “Fate of the tested drug after injection into the rats” value ([1]; SD rats, 20 mg/kg i.v. bolus) was “degraded and the releases camptothecin”. For the same compound, the concentration at 0.083 h ([1]; both sexes, Sprague-Dawley (SD), rat, plasma, iv, 20 mg/kg, 20 mg/kg HM 910 i.v. bolus, 0.083 hr, mean of rats) was 41300 ng/mL, the concentration at 0.25 h ([1]; both sexes, Sprague-Dawley (SD), rat, plasma, iv, 20 mg/kg, 20 mg/kg HM 910 i.v. bolus, 0.25 hr, mean of rats) was 9860 ng/mL and the concentration at 0.5 h ([1]; both sexes, Sprague-Dawley (SD), rat, plasma, iv, 20 mg/kg, 20 mg/kg HM 910 i.v. bolus, 0.5 hr, mean of rats) was 2220 ng/mL. The concentration at 0.75 h ([1]; both sexes, Sprague-Dawley (SD), rat, plasma, iv, 20 mg/kg, 20 mg/kg HM 910 i.v. bolus, 0.75 hr, mean of rats) was 806 ng/mL, the concentration at 1 h ([1]; both sexes, Sprague-Dawley (SD), rat, plasma, iv, 20 mg/kg, 20 mg/kg HM 910 i.v. bolus, 1 hr, mean of rats) was 360 ng/mL and the concentration at 1.5 h ([1]; both sexes, Sprague-Dawley (SD), rat, plasma, iv, 20 mg/kg, 20 mg/kg HM 910 i.v. bolus, 1.5 hr, mean of rats) was 89.6 ng/mL. The concentration at 2 h ([1]; both sexes, Sprague-Dawley (SD), rat, plasma, iv, 20 mg/kg, 20 mg/kg HM 910 i.v. bolus, 2 hr, mean of rats) was 34.9 ng/mL, the concentration at 2.5 h ([1]; both sexes, Sprague-Dawley (SD), rat, plasma, iv, 20 mg/kg, 20 mg/kg HM 910 i.v. bolus, 2.5 hr, mean of rats) was 18.7 ng/mL and the Resistance index [2] was 6. The “anti-tumor effect on NCI-H929 xenografts in nude mice (in words)” value (“anti-tumor effect on NCI-H929 xenografts” for short) ([3]; 25 mg/kg) was “significant anti-tumor effect”, the “IR By RTV %” value ([3]; HM910 l-dose 18 mg/kg) was 66.5% and the “IR By TW %” value ([3]; HM910 l-dose 18 mg/kg) was 72.7%. The “RTV (X ± SD)” value ([3]; HM910 l-dose 18 mg/kg) was 13.5 ± 11.0, the “TW (X ± SD, g)” value ([3]; HM910 l-dose 18 mg/kg) was 0.41 ± 0.34 g and the “Bw (X ± SD, g) end” value ([3]; HM910 l-dose 18 mg/kg) was 19.2 ± 0.9 g. The “TV (X ± SD, mm^3) End” value ([3]; HM910 l-dose 18 mg/kg) was 653.0 ± 560.4 mm^3, the “Bw (X ± SD, g) initial” value ([3]; HM910 l-dose 18 mg/kg) was 21.0 ± 1.6 g and the “TV (X ± SD, mm^3) initial” value ([3]; HM910 l-dose 18 mg/kg) was 48.6 ± 4.9 mm^3. For the same compound, the “IR By RTV %” value ([3]; HM910 m-dose 25 mg/kg) was 75.7%, the “IR By TW %” value ([3]; HM910 m-dose 25 mg/kg) was 82.0% and the “RTV (X ± SD)” value ([3]; HM910 m-dose 25 mg/kg) was 9.80 ± 11.6. The “TW (X ± SD, g)” value ([3]; HM910 m-dose 25 mg/kg) was 0.27 ± 0.35 g, the “Bw (X ± SD, g) end” value ([3]; HM910 m-dose 25 mg/kg) was 18.5 ± 0.7 g and the “TV (X ± SD, mm^3) End” value ([3]; HM910 m-dose 25 mg/kg) was 480.1 ± 570.6 mm^3. For the same compound, the “Bw (X ± SD, g) initial” value ([3]; HM910 m-dose 25 mg/kg) was 17.3 ± 0.7 g, the “TV (X ± SD, mm^3) initial” value ([3]; HM910 m-dose 25 mg/kg) was 48.2 ± 7.8 mm^3 and the “IR By RTV %” value ([3]; HM910 h-dose 35 mg/kg) was 86.1%. The “IR By TW %” value ([3]; HM910 h-dose 35 mg/kg) was 88.2%, the “RTV (X ± SD)” value ([3]; HM910 h-dose 35 mg/kg) was 5.61 ± 9.74 and the “TW (X ± SD, g)” value ([3]; HM910 h-dose 35 mg/kg) was 0.18 ± 0.36 g. The “Bw (X ± SD, g) end” value ([3]; HM910 h-dose 35 mg/kg) was 18.8 ± 0.6 g, the “TV (X ± SD, mm^3) End” value ([3]; HM910 h-dose 35 mg/kg) was 272.3 ± 483.1 mm^3 and the “Bw (X ± SD, g) initial” value ([3]; HM910 h-dose 35 mg/kg) was 17.3 ± 0.7 g. For the same compound, the “TV (X ± SD, mm^3) initial” value ([3]; HM910 h-dose 35 mg/kg) was 46.9 ± 8.8 mm^3, the “anti-tumor effect on NCI-H929 xenografts” value ([3]; high dose, 35 mg/kg) was “significant anti-tumor effect” and the “anti-tumor effect on NCI-H929 xenografts” value ([3]; low-dose group, 18 mg/kg) was “significant anti-tumor effect”. For the same compound, the solubility [4] was over 10000 µg/mL.
